Measured values taken from publication PMC9421656, “Beyond Retigabine: Design, Synthesis, and Pharmacological Characterization of a Potent and Chemically Stable Neuronal Kv7 Channel Activator with Anticonvulsant Activity” (Journal of Medicinal Chemistry, 2022).
Like-named read-outs stand apart in the source and are kept apart here.

How the values were obtained:
[1] = biological target: T1, Kv7.2 W236L channels (Homo sapiens, UniProt O43526, W236L); experiment: Whole-cell patch-clamp on homomeric Kv7.2 W236L mutant channels; assay type: cell-based; conditions: 10 μM RET or 1 μM 60
T1 construct: expressed in transfected cells; host or cells: CHO cells, transient transfection (pcDNA3.1)

[2] = Photostability under UV-visible light with HPLC analysis (degradation, dimer formation); assay type: physicochemical; conditions: for % Degradation (3h, UV): 10 μM, buffered aqueous solution pH 7.4, 3 h UV-visible light, ± SD; for Dimers Formation: HPLC at 550 nm
Source text: Two different HPLC wavelengths were utilized: (a) […] to evaluate the decreased concentration of the starting molecule; (b) 550 nm to investigate the formation of phenazine/phenazinium dimers, as previously described.[10] Unfortunately, dimer formation was detected for all tested compounds, except for 23 and 24. […]. […]. The first group consisted of N4 (−X- in Table 2) substituted analogues, in which the tertiary amine is unavailable for the formation of phenazine dimers (compounds 25–28). […]. The third group included derivatives replacing hydrogen atoms with electron-withdrawing fluorine atoms at position R2 of the benzene-1,2,4-triamine core scaffold (compounds 59, 60), a strategy likely reducing the reactivity of N2 and N4. […].
Photostability experiments were performed by dissolving compounds in DMSO and then diluting in buffered aqueous solutions at pH 7.4 to a final concentration of 10 μM. 1 cm quartz cells, filled with the abovementioned solutions, were irradiated by a UV lamp (UV Consulting TQ 150 equipped with Duran 50 sleeve and 150 W power supply unit, Peschl, Germany) at a fixed distance of 20 cm from the UV source. Control samples were maintained at 37 °C, wrapped with aluminum foil to avoid light exposure, and used to assess chemical stability of the compounds. At predetermined intervals, aliquots were withdrawn and analyzed by UHPLC in order to assess the concentration decrease of the starting materials and the presence of the dimers usually formed by retigabine.
Photostability and chemical stability experiments were carried out on a Kinetex^TM C18 150 × 2.1 mm × 2.6 μm (100 Å) column (Phenomenex, Bologna, Italy). The optimal mobile phase consisted of 0.1% TFA/H2O v/v (A) and 0.1% TFA/ACN v/v (B). Analysis was performed in gradient elution as follows: 0–13.0 min, 5–65% B; 13–14.0 min, 65–95% B; 14–15.0 min, isocratic to 95% B; 15–15.01 min, 95–5% B; then 3 min for column re-equilibration. The flow rate was 0.5 mL min^–1. The column oven temperature was set to 45 °C. The injection volume was 7 μL of sample. The following PDA parameters were applied: sampling rate, 12.5 Hz; detector time constant, 0.160 s; cell temperature, 40 °C. Data acquisition was set in the range 190–800 nm, and chromatograms were monitored at 224 nm to assess the decrease in concentration of the starting material, while a wavelength of 550 nm was used to eventually detect dimerization.

[3] = in vivo; conditions: Sprague-Dawley, rat, ip, 0.3 mg/kg
Method: The drug half-lives were calculated using GraphPad Prism 8.0.2 (GraphPad Software, LaJolla, CA).
Returning to 40% B in 0.10 min. The flow rate was set at 0.5 mL/min. The column oven was set at 45 °C, and 5 μL of extract was injected. All additives and mobile phases were LCMS-grade and purchased from Merck (Milan, Italy).
The ESI was operated in positive mode. […] Interface temperature, desolvation line temperature, and heat block temperature were set, respectively, to 250, 250, and 350 °C. Nebulizing, drying (N2), and heating gas (air) were set, respectively, to 3, 10, and 10 L/min.

[4] = biological target: Kv7.2/Kv7.3 channels (Homo sapiens, UniProt O43525+O43526); experiment: Whole-cell patch-clamp electrophysiology in CHO cells expressing Kv7.2/Kv7.3; assay type: cell-based; design: expressed in transfected cells; host or cells: CHO cells, transient transfection (pcDNA3.1, Lipofectamine 2000); conditions: for EC50: dose-response 0.01–30 μM
Method: Channel subunits were expressed in Chinese hamster ovary (CHO) cells by transient transfection, using plasmids containing cDNAs encoding human Kv7.2 and/or Kv7.3, all cloned in the pcDNA3.1 vector. According to the experimental protocol, these plasmids were expressed individually or in combination, together with a plasmid-expressing enhanced green fluorescent protein (Clontech, Palo Alto, CA) used as a transfection marker. Total cDNA in the transfection mixture was kept at 4 μg. CHO cells were grown in 100 mm plastic Petri dishes in Dulbecco’s modified Eagle’s medium containing 10% fetal bovine serum, nonessential amino acids (0.1 mM), penicillin (50 U/mL), and streptomycin ([…]) in a humidified atmosphere at 37 °C with 5% CO2.
Currents from CHO cells were recorded at room temperature (20–22 °C) using the whole-cell configuration of the patch-clamp technique, with glass micropipettes of 3–5 MΩ resistance. During the recording, constant perfusion of extracellular solution was maintained. […] The pipette (intracellular) solution contained (in mM): 140 KCl, 2 MgCl2, 10 EGTA, 10 HEPES, 5 Mg^2+-ATP, at pH 7.3–7.4, with KOH. […] To evaluate the activity of each compound on Kv7.2 + Kv7.3 currents, the cells were clamped at −80 mV and conductance–voltage curves (G/V curves; activation curves) were generated by normalizing to the maximal value of the instantaneous isopotential currents at 0 mV and expressing the normalized values as a function of the preceding voltages. Data were fit to a Boltzmann distribution of the following form: y = max/[1 + exp (V1/2 – V)/k], where V is the test potential, V1/2 is the half-activation potential, and k is the slope factor.
Indicated EC50 values are the mean of at least three independent experiments ± standard error of the mean (SEM).
Statistically significant differences in electrophysiological data were evaluated with the Student t test or with ANOVA followed by the Student–Newman–Keuls test when multiple groups were compared, with the threshold set at p < 0.05. […] Values are expressed as the […] mean ± standard error of the mean (SEM) of at least three cells recorded in at least three independent transfections.

Row | Compound | Kv7 opening ability in W236L channels [1] | % Degradation (3h, UV) [2] [%] | Dimers Formation ([2]; 3 h UV-visible light) | Photodegradation (in words) ([2]; 3 h UV-visible light, compared with retigabine) | concentration at 0.5 h [3] [ng/mL] | concentration at 2 h [3] [ng/mL] | concentration at 4 h [3] [ng/mL] | concentration at 8 h [3] [ng/mL] | concentration at 24 h [3] [ng/mL] | half-life [3] [h] | Potency relative to RL-81 [4] | Leftward shift in V1/2 (ΔV1/2) ([4]; 1 μM) [mV] | Idrug/Icontrol (maximal current density) ([4]; calculated at +20 mV) | EC50 ([4]; current at +20 mV, read-out: Maximal currents EC50) [nM] | EC50 ([4]; read-out: ΔV1/2 EC50) [nM] | Potency over retigabine as Kv7.2/Kv7.3 activator (fold/times) ([4]; from ΔV1/2 EC50)
1 | CCOC(=O)Nc1ccc(NCc2ccc(F)cc2)cc1N [RET, retigabine] | almost fully abolished | 61.3±0.1 | Yes |  |  |  |  |  |  |  |  |  |  |  |  | 
2 | CC(C)(C)CC(=O)Nc1ccc(NCc2ccc(C(F)(F)F)cc2)c(F)c1N [compound 60, N-(2-Amino-3-fluoro-4-((4-(trifluoromethyl)benzyl)amino)phenyl)-3,3-dimethylbutanamide] | almost fully abolished | 34.8± 1.8 | failed to dimerize and No | more photostable than retigabine | 9 | 8.7 | 6.8 | 5.4 | 0 | 16.9 | about twice more potent than RL-81 | ~50 | 2.1 ± 0.3 | 60 ± 10 | 150 ± 30 | 16
